Measured values: patent US20150079000A1, “Labelled Quinoxaline Derivatives as Multimodal Radiopharmaceuticals and Their Precursors” (INSTITUT NATIONAL DE LA SANTET DE LA RECHERCHE MEDICALE, priority 2012, published 2015)

Legend:
melanin polymers = test: Biodistribution by secondary ion mass spectrometry (SIMS) analysis; type: in vivo, C57BL/6J mice; conditions: B16BL6 melanoma cells colony in lung, 1 h after i.v. 0.1 μmol/mice
Description: B16BL6 cells were injected intravenously into male C57BL/6J mice to obtain, within 12 days, tumour cell colonies in lungs mimicking pulmonary micrometastases. After i.v. administration of compound (1) (0.1 μmol/mice in 0.2 mL of a hydroalcoholic solution (5% v/v, 0.9% NaCl) per mouse), mice were killed 1 h post injection. Lungs were removed and small pieces of tissue including B16 melanoma colonies were isolated and fixed by slam freezing on an LN2-precooled metal mirror. Samples were dehydrated by freeze drying starting at −110 to −10° C. before embedding in Spurr resin. Serial sections of 0.4 μm thick were deposited on stainless steel holders for SIMS analysis or on glass slides for light microscopy observation.

[1] = octanol/water (PBS buffer) partition coefficient (log D); type: physicochemical
[2] = radiochemical stability of the radiotracer after preparation; type: physicochemical
B16BL6 tumour = test: PET imaging in B16BL6 tumour bearing mice; type: in vivo, C57BL/6J mice; conditions: 1 h p.i., day-15
Description: (§1) All our studies were performed in accordance with French and European Economic Community (86-609, EEC) guidelines for care of laboratory animals. Protocols were performed under the authorization of the French Direction des Services Veterinaires (authorization no. CE 86-12). Male C57BL/6J mice were originating from Charles River laboratories and maintained at 21° C. with a 12 h/12 h light/dark cycle, fed with a breeding diet (diet A04 from Safe, Villemoisson, France) and received water ad libitum. For transplantation B16BL6 cell suspension were grown in a monolayer culture to confluence, after which cells were trypsinized, washed with phosphate buffer saline (PBS) and they were resuspended in PBS. Mice were anesthetized by isoflurane (4% for induction and 2±0.5% for maintaining in oxygen flux) inhalation. The primary tumour model was induced by subcutaneous injection of 3×10^5 melanoma B16B16 cells in 0.1 mL on the right shoulder of mice.
Whole-body PET scans were acquired 1 h after bolus injection of […] of the appropriate [^18F]-compound in a volume of 0.15 ml via the tail vein. Mice were anesthetized by intraperitoneal (i.p.) administration (200 μL/mouse) of a ketamine-xylazine mixture in saline: ketamine (100 mg/kg, Imalgene™, Rhône Mérieux, Lyon, France) and xylazine (10 mg/kg, Rompun™, Bayer, France) before radiotracer injection and imaged by using a small-animal PET device, eXplore Vista microPET instrument (GE Healthcare). PET images were acquired by using static mode during 20 min. The acquired data were reconstructed using the 2-Dimensional ordered-subsets expectation maximization (OSEM) algorithm and corrected from decay, scatter and randoms. No corrections were applied for partial volume or attenuation.
Regional tracer uptake was quantified by standard region-of-interest (ROI) analysis with eXplore Vista software package. A manual 2D-ROI was drawn around the tumour in each slice where tumour was visible, and on several subsequent coronal planes containing muscle tissue at the forelimb. Results are expressed by percentage of injected dose per gram of tissue (% ID/g).
PET imaging was performed 1 h post injection of tracers in B16BL6 tumour bearing mice at day-15 after tumours cell inoculation.

[3] = system: B16 murine melanoma tumours; test: Ex vivo biodistribution of [18F]-labelled compounds; type: in vivo, C57BL/6J mice
Description: as §1
Ex vivo biodistribution studies: An ex vivo biodistribution study was performed for better comparison of [^18F](1) and [^18F](5). Experimentations were undertaken at day-10 or day-14 after cell inoculation (n=3-6/group). […] Tumours and major organs and tissues were promptly excised, harvested, weighted and their radioactivity counted using a calibrated γ-counter with a 400 to 600 keV energy window. After radioactive decay correction, results were expressed as percentage of injected dose per gram of tissue (% ID/g).

melanoma model B16BL6 = test: Internal radiotherapy with [131I](1), B16BL6 model; type: in vivo, mice
[4] = system: SKMEL-3 human melanoma model; test: Internal radiotherapy with [131I](1), SKMEL-3 model; type: in vivo, mice
Description: Compound (1) was labelled with iodine-131, at high specific activity, from the corresponding stannane precursor, as described in detail in example 8. The labeling was performed with a radiochemical yield of 80% and a radiochemical purity>99%. […] The antitumour activity of the compound [^131I](1) was also evaluated in SKMEL-3 human melanoma model after injections of 25 MBq of [^131I](1): Two groups of mice were used receiving two injections at day-33 and day-40 or three injections of at day-33, day-40 and day-47 post inoculation. Results were compared to control group injected with saline.

[5] = Calculation of absorbed dose to the tumour and organs (MIRD); type: in vivo, C57BL/6J mice; conditions: iodine 131

CCN(CCNC(=O)c1cnc2cc(I)ccc2n1)CCOCCOCCOCCF [Compound 1, N-(12-ethyl-1-fluoro-3,6,9-trioxa-12-azatetradecan-14-yl)-6-iodoquinoxaline-2-carboxamide]
colocalisation with melanin polymers (SIMS, CN− and iodine-127 signals) (melanin polymers): perfect colocalisation

CCN(CCNC(=O)c1cnc2cc(I)ccc2n1)CCOCCOCCOCCOCCOCCOCCOCC[18F] [[^18F](5)]
octanol/water (PBS buffer) partition coefficient (log D) [1]: 0.95±0.02
radiochemically stable at room temperature after preparation [2]: at least 6 h
eyes uptake (B16BL6 tumour): 5.53±1.35 % ID/g
muscles activity (B16BL6 tumour): 1.01±0.09 % ID/g
tumour uptake (B16BL6 tumour): 6.63±1.64 % ID/g
tumour/muscle ratio (B16BL6 tumour): 6.62±1.90
% ID/g (tumour) ([3]; 1 h p.i.): 9.81 ± 2.96 % ID/g
% ID/g Blood ([3]; 1 h p.i.): 1.15 ± 0.19 % ID/g
% ID/g Bones ([3]; 1 h p.i.): 1.82±0.55 % ID/g
% ID/g Brain ([3]; 1 h p.i.): 1.03 ± 0.18 % ID/g
% ID/g Ceacum ([3]; 1 h p.i.): 6.37 ± 4.84 % ID/g
% ID/g Colon + faeces ([3]; 1 h p.i.): 7.39 ± 1.36 % ID/g
% ID/g Eyes ([3]; 1 h p.i.): 12.24 ± 4.39 % ID/g
% ID/g Heart ([3]; 1 h p.i.): 1.58 ± 0.24 % ID/g
% ID/g Kidney ([3]; 1 h p.i.): 3.60 ± 1.74 % ID/g
% ID/g Liver ([3]; 1 h p.i.): 2.02 ± 0.19 % ID/g
% ID/g Lung ([3]; 1 h p.i.): 1.75 ± 0.18 % ID/g
% ID/g Muscle ([3]; 1 h p.i.): 1.07 ± 0.35 % ID/g
% ID/g Pancreas ([3]; 1 h p.i.): 2.63 ± 1.33 % ID/g
% ID/g Skin ([3]; 1 h p.i.): 1.22 ± 0.22 % ID/g
% ID/g Small intestine ([3]; 1 h p.i.): 16.68 ± 7.93 % ID/g
% ID/g Spleen ([3]; 1 h p.i.): 2.35 ± 0.91 % ID/g
% ID/g Stomach ([3]; 1 h p.i.): 5.87 ± 3.32 % ID/g
TBR Tumour-to-Blood Ratio ([3]; 1 h p.i.): 8.29 ± 2.87
TBoR Tumour-to-Bone Ratio ([3]; 1 h p.i.): 5.35 ± 0.82
TMR Tumour-to-Muscle Ratio ([3]; 1 h p.i.): 9.48 ± 2.41
% ID/g (tumour) ([3]; 2 h p.i.): 5.81 ± 1.37 % ID/g
% ID/g Blood ([3]; 2 h p.i.): 1.37 ± 0.30 % ID/g
% ID/g Bones ([3]; 2 h p.i.): 2.13 ± 0.19 % ID/g
% ID/g Brain ([3]; 2 h p.i.): 1.03 ± 0.10 % ID/g
% ID/g Ceacum ([3]; 2 h p.i.): 12.10 ± 10.31 % ID/g
% ID/g Colon + faeces ([3]; 2 h p.i.): 8.14 ± 1.78 % ID/g
% ID/g Eyes ([3]; 2 h p.i.): 12.10 ± 1.85 % ID/g
% ID/g Heart ([3]; 2 h p.i.): 1.70 ± 0.24 % ID/g
% ID/g Kidney ([3]; 2 h p.i.): 3.52 ± 1.02 % ID/g
% ID/g Liver ([3]; 2 h p.i.): 2.31 ± 0.64 % ID/g
% ID/g Lung ([3]; 2 h p.i.): 1.72 ± 0.72 % ID/g
% ID/g Muscle ([3]; 2 h p.i.): 1.04 ± 0.24 % ID/g
% ID/g Pancreas ([3]; 2 h p.i.): 1.56 ± 0.38 % ID/g
% ID/g Skin ([3]; 2 h p.i.): 0.94 ± 0.51 % ID/g
% ID/g Small intestine ([3]; 2 h p.i.): 19.51 ± 5.43 % ID/g
% ID/g Spleen ([3]; 2 h p.i.): 2.38 ± 0.87 % ID/g
% ID/g Stomach ([3]; 2 h p.i.): 7.35 ± 4.79 % ID/g
TBR Tumour-to-Blood Ratio ([3]; 2 h p.i.): 4.01 ± 1.12
TBoR Tumour-to-Bone Ratio ([3]; 2 h p.i.): 2.75 ± 0.80
TMR Tumour-to-Muscle Ratio ([3]; 2 h p.i.): 5.75 ± 1.45
% ID/g (tumour) ([3]; 3 h p.i.): 6.76±1.35 % ID/g
% ID/g Blood ([3]; 3 h p.i.): 0.99 ± 0.20 % ID/g
% ID/g Bones ([3]; 3 h p.i.): 3.61 ± 1.12 % ID/g
% ID/g Brain ([3]; 3 h p.i.): 1.72 ± 0.67 % ID/g
% ID/g Ceacum ([3]; 3 h p.i.): 29.31 ± 17.94 % ID/g
% ID/g Colon + faeces ([3]; 3 h p.i.): 12.63 ± 7.83 % ID/g
% ID/g Eyes ([3]; 3 h p.i.): 13.43 ± 2.17 % ID/g
% ID/g Heart ([3]; 3 h p.i.): 3.00 ± 1.12 % ID/g
% ID/g Kidney ([3]; 3 h p.i.): 2.60 ± 1.69 % ID/g
% ID/g Liver ([3]; 3 h p.i.): 2.60 ± 1.37 % ID/g
% ID/g Lung ([3]; 3 h p.i.): 2.37 ± 0.67 % ID/g
% ID/g Muscle ([3]; 3 h p.i.): 1.11 ± 0.34 % ID/g
% ID/g Pancreas ([3]; 3 h p.i.): 1.81 ± 0.66 % ID/g
% ID/g Skin ([3]; 3 h p.i.): 1.47 ± 0.49 % ID/g
% ID/g Small intestine ([3]; 3 h p.i.): 18.62 ± 13.65 % ID/g
% ID/g Spleen ([3]; 3 h p.i.): 2.35 ± 0.98 % ID/g
% ID/g Stomach ([3]; 3 h p.i.): 5.39 ± 3.13 % ID/g
TBR Tumour-to-Blood Ratio ([3]; 3 h p.i.): 5.27±0.20
TBoR Tumour-to-Bone Ratio ([3]; 3 h p.i.): 2.16 ± 1.15
TMR Tumour-to-Muscle Ratio ([3]; 3 h p.i.): 6.64±2.69
in vivo defluorination ([3]; 3 h p.i.): Partial in vivo defluorinations

CCN(CCNC(=O)c1cnc2cc([131I])ccc2n1)CCOCCOCCOCCF [[^131I](1)]
octanol/water (PBS buffer) partition coefficient (log D) [1]: 0.95±0.04
metastasis dissemination (melanoma model B16BL6; B16BL6 melanoma model): inhibition of metastasis dissemination
tumour doubling time (melanoma model B16BL6; B16BL6 tumours, two i.v. injections of 20 MBq at day-7 and day-11): 2.9 ± 0.5 days
median survival time (melanoma model B16BL6; treated B16BL6 bearing-mice): 27 days
tumour doubling time ([4]; SKMEL-3 tumours, injections of 25 MBq once weekly for 2 or 3 weeks): 26.5 ± 7.8 days
median survival time ([4]; treated SKMEL-3 bearing-mice): 111 days
Biological half life (h) ([5]; Adipose): 38.28 h
Effective half life ([5]; Adipose): 47.78 h
Biological half life (h) ([5]; Bladder (empty)): 27.57 h
Effective half life ([5]; Bladder (empty)): 32.17 h
Biological half life (h) ([5]; Blood): 27.45 h
Effective half life ([5]; Blood): 32.02 h
Biological half life (h) ([5]; Brain): 27.55 h
Effective half life ([5]; Brain): 41.63 h
Biological half life (h) ([5]; Colon with Faeces): 28.48 h
Effective half life ([5]; Colon with Faeces): 26.92 h
Biological half life (h) ([5]; Eyes): 125.03 h
Effective half life ([5]; Eyes): 356.77 h
Biological half life (h) ([5]; Heart): 68.51 h
Effective half life ([5]; Heart): 46.93 h
Biological half life (h) ([5]; Kidney): 27.60 h
Effective half life ([5]; Kidney): 32.22 h
Biological half life (h) ([5]; Liver): 25.87 h
Effective half life ([5]; Liver): 29.89 h
Biological half life (h) ([5]; Lung): 37.73 h
Effective half life ([5]; Lung): 34.21 h
Biological half life (h) ([5]; Muscle): 37.36 h
Effective half life ([5]; Muscle): 46.36 h
Biological half life (h) ([5]; Pancreas): 29.04 h
Effective half life ([5]; Pancreas): 40.79 h
Biological half life (h) ([5]; Skin): 46.20 h
Effective half life ([5]; Skin): 60.79 h
Biological half life (h) ([5]; Small Bowels): 23.67 h
Effective half life ([5]; Small Bowels): 26.99 h
Biological half life (h) ([5]; Spleen): 33.66 h
Effective half life ([5]; Spleen): 33.43 h
Biological half life (h) ([5]; Stomach): 27.36 h
Effective half life ([5]; Stomach): 31.89 h
Biological half life (h) ([5]; Testes): 27.57 h
Effective half life ([5]; Testes): 32.16 h
Biological half life (h) ([5]; Tumour): 71.67 h
Effective half life ([5]; Tumour): 114.18 h
Biological half life (h) ([5]; bones): 12.92 h
Effective half life ([5]; bones): 13.85 h
